Measured values from BigSolDB 2.1.

O=P(NCc1ccccc1)(Oc1ccccc1)Oc1ccccc1
solubility (mole fraction)
Conditions	in THF	in acetone	in acetonitrile	in chloroform	in dichloromethane	in ethyl acetate	in methanol	in methyl acetate	in toluene
288.15 K	–	–	–	0.095	0.055	–	–	0.0168	–
293.15 K	0.0978	0.0447	0.0148	0.109	0.0724	0.0199	0.0111	0.0234	0.0109
298.15 K	0.115	0.0587	0.0196	0.126	0.0965	0.0279	0.0158	0.0309	0.016
303.15 K	0.132	0.0741	0.0264	0.143	0.126	0.0368	0.0231	0.0407	0.0228
308.15 K	0.157	0.0986	0.0344	0.164	0.157	0.0484	0.0322	0.055	0.0312
313.15 K	0.183	0.122	0.0431	0.191	–	0.0627	0.0449	0.0699	0.0428
318.15 K	0.208	0.154	0.0591	0.218	–	0.0824	0.0629	0.094	0.0574
323.15 K	0.24	0.198	0.0742	0.248	–	0.104	0.0875	0.122	0.0814
328.15 K	–	–	0.0948	0.275	–	0.137	0.125	–	0.108
333.15 K	–	–	0.122	–	–	0.182	0.166	–	0.146
338.15 K	–	–	0.155	–	–	–	–	–	0.187
343.15 K	–	–	–	–	–	–	–	–	0.243
